{"source": "BigSolDB 2.1", "data": [{"smiles": "O=P(O)(c1ccccc1)c1ccccc1", "values": [{"measurement": "solubility (mole fraction)", "setting": "in 2-ethoxyethanol, 288.15 K", "value": 0.00619}, {"measurement": "solubility (mole fraction)", "setting": "in 2-ethoxyethanol, 293.18 K", "value": 0.00716}, {"measurement": "solubility (mole fraction)", "setting": "in 2-ethoxyethanol, 298.17 K", "value": 0.0081}, {"measurement": "solubility (mole fraction)", "setting": "in 2-ethoxyethanol, 303.04 K", "value": 0.00924}, {"measurement": "solubility (mole fraction)", "setting": "in 2-ethoxyethanol, 308.11 K", "value": 0.0106}, {"measurement": "solubility (mole fraction)", "setting": "in 2-ethoxyethanol, 313.15 K", "value": 0.0118}, {"measurement": "solubility (mole fraction)", "setting": "in 2-ethoxyethanol, 318.2 K", "value": 0.0135}, {"measurement": "solubility (mole fraction)", "setting": "in 2-ethoxyethanol, 323.16 K", "value": 0.0151}, {"measurement": "solubility (mole fraction)", "setting": "in 2-ethoxyethanol, 328.2 K", "value": 0.0172}, {"measurement": "solubility (mole fraction)", "setting": "in 2-ethoxyethanol, 332.96 K", "value": 0.0196}, {"measurement": "solubility (mole fraction)", "setting": "in 2-ethoxyethanol, 338.03 K", "value": 0.0223}, {"measurement": "solubility (mole fraction)", "setting": "in 2-ethoxyethanol, 343.24 K", "value": 0.0252}, {"measurement": "solubility (mole fraction)", "setting": "in 2-ethoxyethanol, 348.24 K", "value": 0.0285}, {"measurement": "solubility (mole fraction)", "setting": "in 2-ethoxyethanol, 353.25 K", "value": 0.0321}, {"measurement": "solubility (mole fraction)", "setting": "in 2-ethoxyethanol, 358.29 K", "value": 0.036}, {"measurement": "solubility (mole fraction)", "setting": "in 2-ethoxyethanol, 363.1 K", "value": 0.0401}, {"measurement": "solubility (mole fraction)", "setting": "in acetic acid, 293.23 K", "value": 0.00426}, {"measurement": "solubility (mole fraction)", "setting": "in acetic acid, 303.15 K", "value": 0.00604}, {"measurement": "solubility (mole fraction)", "setting": "in acetic acid, 313.03 K", "value": 0.00827}, {"measurement": "solubility (mole fraction)", "setting": "in acetic acid, 323.15 K", "value": 0.0112}, {"measurement": "solubility (mole fraction)", "setting": "in acetic acid, 333.21 K", "value": 0.0151}, {"measurement": "solubility (mole fraction)", "setting": "in acetic acid, 343.04 K", "value": 0.0209}, {"measurement": "solubility (mole fraction)", "setting": "in acetone, 293.25 K", "value": 0.00051}, {"measurement": "solubility (mole fraction)", "setting": "in acetone, 298.18 K", "value": 0.00068}, {"measurement": "solubility (mole fraction)", "setting": "in acetone, 303.12 K", "value": 0.00091}, {"measurement": "solubility (mole fraction)", "setting": "in acetone, 308.23 K", "value": 0.0012}, {"measurement": "solubility (mole fraction)", "setting": "in acetone, 313.19 K", "value": 0.00156}, {"measurement": "solubility (mole fraction)", "setting": "in acetone, 318.21 K", "value": 0.00203}, {"measurement": "solubility (mole fraction)", "setting": "in acetone, 323.24 K", "value": 0.00244}, {"measurement": "solubility (mole fraction)", "setting": "in benzene, 293.15 K", "value": 0.0007}, {"measurement": "solubility (mole fraction)", "setting": "in benzene, 303.19 K", "value": 0.00112}, {"measurement": "solubility (mole fraction)", "setting": "in benzene, 313.17 K", "value": 0.00183}, {"measurement": "solubility (mole fraction)", "setting": "in benzene, 322.95 K", "value": 0.00291}, {"measurement": "solubility (mole fraction)", "setting": "in benzene, 333.21 K", "value": 0.00459}, {"measurement": "solubility (mole fraction)", "setting": "in benzene, 343.12 K", "value": 0.00706}, {"measurement": "solubility (mole fraction)", "setting": "in ethanol, 283.15 K", "value": 0.00575}, {"measurement": "solubility (mole fraction)", "setting": "in ethanol, 288.15 K", "value": 0.00671}, {"measurement": "solubility (mole fraction)", "setting": "in ethanol, 293.1 K", "value": 0.00774}, {"measurement": "solubility (mole fraction)", "setting": "in ethanol, 298.07 K", "value": 0.00889}, {"measurement": "solubility (mole fraction)", "setting": "in ethanol, 303.07 K", "value": 0.0102}, {"measurement": "solubility (mole fraction)", "setting": "in ethanol, 308.15 K", "value": 0.0117}, {"measurement": "solubility (mole fraction)", "setting": "in ethanol, 313.16 K", "value": 0.0134}, {"measurement": "solubility (mole fraction)", "setting": "in ethanol, 318.16 K", "value": 0.0152}, {"measurement": "solubility (mole fraction)", "setting": "in ethanol, 322.84 K", "value": 0.0173}, {"measurement": "solubility (mole fraction)", "setting": "in ethanol, 327.94 K", "value": 0.0198}, {"measurement": "solubility (mole fraction)", "setting": "in ethanol, 333.1 K", "value": 0.0231}, {"measurement": "solubility (mole fraction)", "setting": "in ethanol, 337.97 K", "value": 0.0264}, {"measurement": "solubility (mole fraction)", "setting": "in ethanol, 342.9 K", "value": 0.0302}, {"measurement": "solubility (mole fraction)", "setting": "in ethyl acetate, 293.06 K", "value": 0.00052}, {"measurement": "solubility (mole fraction)", "setting": "in ethyl acetate, 298.15 K", "value": 0.0006}, {"measurement": "solubility (mole fraction)", "setting": "in ethyl acetate, 303.15 K", "value": 0.00075}, {"measurement": "solubility (mole fraction)", "setting": "in ethyl acetate, 308.17 K", "value": 0.00098}, {"measurement": "solubility (mole fraction)", "setting": "in ethyl acetate, 313.23 K", "value": 0.00121}, {"measurement": "solubility (mole fraction)", "setting": "in ethyl acetate, 318.04 K", "value": 0.00144}, {"measurement": "solubility (mole fraction)", "setting": "in ethyl acetate, 323.1 K", "value": 0.00176}, {"measurement": "solubility (mole fraction)", "setting": "in ethyl acetate, 328.13 K", "value": 0.00208}, {"measurement": "solubility (mole fraction)", "setting": "in ethyl acetate, 333.25 K", "value": 0.00247}, {"measurement": "solubility (mole fraction)", "setting": "in ethyl acetate, 337.95 K", "value": 0.00318}, {"measurement": "solubility (mole fraction)", "setting": "in isopropanol, 288.15 K", "value": 0.00426}, {"measurement": "solubility (mole fraction)", "setting": "in isopropanol, 293.15 K", "value": 0.00503}, {"measurement": "solubility (mole fraction)", "setting": "in isopropanol, 297.98 K", "value": 0.00594}, {"measurement": "solubility (mole fraction)", "setting": "in isopropanol, 303.09 K", "value": 0.00696}, {"measurement": "solubility (mole fraction)", "setting": "in isopropanol, 308.05 K", "value": 0.00803}, {"measurement": "solubility (mole fraction)", "setting": "in isopropanol, 313.15 K", "value": 0.00931}, {"measurement": "solubility (mole fraction)", "setting": "in isopropanol, 318.06 K", "value": 0.0107}, {"measurement": "solubility (mole fraction)", "setting": "in isopropanol, 323.08 K", "value": 0.0123}, {"measurement": "solubility (mole fraction)", "setting": "in isopropanol, 328.12 K", "value": 0.0144}, {"measurement": "solubility (mole fraction)", "setting": "in isopropanol, 332.97 K", "value": 0.0165}, {"measurement": "solubility (mole fraction)", "setting": "in isopropanol, 338.17 K", "value": 0.0189}, {"measurement": "solubility (mole fraction)", "setting": "in isopropanol, 342.94 K", "value": 0.0223}, {"measurement": "solubility (mole fraction)", "setting": "in isopropanol, 347.8 K", "value": 0.0257}, {"measurement": "solubility (mole fraction)", "setting": "in toluene, 293.15 K", "value": 0.00049}, {"measurement": "solubility (mole fraction)", "setting": "in toluene, 303.16 K", "value": 0.00074}, {"measurement": "solubility (mole fraction)", "setting": "in toluene, 313.18 K", "value": 0.00107}, {"measurement": "solubility (mole fraction)", "setting": "in toluene, 323.08 K", "value": 0.00157}, {"measurement": "solubility (mole fraction)", "setting": "in toluene, 333.17 K", "value": 0.00232}, {"measurement": "solubility (mole fraction)", "setting": "in toluene, 343.25 K", "value": 0.00326}, {"measurement": "solubility (mole fraction)", "setting": "in toluene, 352.95 K", "value": 0.00462}, {"measurement": "solubility (mole fraction)", "setting": "in toluene, 362.65 K", "value": 0.00651}, {"measurement": "solubility (mole fraction)", "setting": "in water, 303.14 K", "value": "5e-05"}, {"measurement": "solubility (mole fraction)", "setting": "in water, 313.17 K", "value": "8e-05"}, {"measurement": "solubility (mole fraction)", "setting": "in water, 323.13 K", "value": 0.00011}, {"measurement": "solubility (mole fraction)", "setting": "in water, 333 K", "value": 0.00014}, {"measurement": "solubility (mole fraction)", "setting": "in water, 343.05 K", "value": 0.00018}, {"measurement": "solubility (mole fraction)", "setting": "in water, 353.05 K", "value": 0.00023}]}]}
